Measured values published in patent publication US11512042B2, “Enamine compounds for absorbance of electromagnetic energy” (Commonwealth Scientific and Industrial Research Organisation, priority 2015, dated 2022).
“And” between values parts separate entries of the source, which are not always exact repeats. Equal entries are not always repeated. Marks after values point to notes of the source that are not given here.

Columns and labels:
Type in all cases: physicochemical
[1] = UV absorbance spectrum in solution (λmax, λcrit, extinction coefficients); conditions: for λcrit: critical wavelength; for E (1%, 1 cm): mass extinction coefficient; for ε: molar extinction coefficient, in M-1 cm-1 (unit assumed)
Description: (§1) FIG. 1 is a graphical representation of the absorbance of compounds 142 and 143 measured in a 10 mm cuvette as 0.001% solutions in methanol (142 is the uppermost trace at peak point of approximately 330 nm); The synthesised benzoyl functionalised compounds and their spectroscopic properties can be seen in table 2 wherein; breakthrough denotes the value in nm where transmittance increases beyond 1%; steepness refers to the distance in nm over which transmittance increases from 1 to 80% (a higher value indicates a less steep transition from absorbing to transmitting and is generally unfavourable); and ^a denotes an average of multiple measurements. As a general comment, it can be noted that the benzoyl substituted compounds gave similar absorbance maxima to the corresponding trifluoroacetyl derivative.

[2] = % transmission spectrum of 0.1% solution (breakthrough, steepness); conditions: for Steepness: distance in nm over which transmittance increases from 1 to 80%; for Breakthrough (1% T at 0.1%): value in nm where transmittance increases beyond 1%, 0.1% solution
Description: FIG. 2 is a is a graphical representation of the % transmission of compounds 142 and 143 measured in a 2 mm cuvette as 0.1% solutions in methanol (142 is the left most trace);
as §1, with “The” for “FIG. 1 is a graphical representation of the absorbance of compounds 142 and 143 measured in a 10 mm cuvette as 0.001% solutions in methanol (142 is the uppermost trace at peak point of approximately 330 nm); The”

[3] = Photostability protocol: thin film irradiated with xenon arc lamp; conditions: 1 hour xenon arc lamp; for Photostability: ratio of absorbance at λmax irradiated vs unirradiated, ^a = average of multiple measurements
Method: 1 mL of a 3% solution of the test compound (30 mg of test compound in 1 mL solvent) was prepared in a solvent mix made up of 50% EtOH and 25% capric/caprylic triglyceride and 25% C12-C15 alkyl benzoate. 50 μL of this solution (containing 1.5 mg of test compound) was added carefully to the centre of a glass microscope slide and the volatile components left to evaporate in the dark for at least 3 hours to give a liquid film. The prepared films were then exposed for 1 hour to an Eimac 150 W xenon arc lamp filtered through Pyrex (15 Amp supply current, samples 19 cm from the lamp) previously allowed to warm up for 15 minutes prior to sample exposure. The irradiation was performed in a fume cupboard where the air flow was sufficient to keep sample T<30° C. One hour's exposure represented a calculated radiation dose (using meter) of approximately 100 MED.
In order to calculate the photostability of the test compounds, the exposed slides were placed in a beaker and rinsed with 2×5 mL EtOH, 1×5 mL MeOH. The combined washings were then added to a 100 mL volumetric flask and made up to 100 mL total volume with methanol. The UV absorbance was then measured in a 10 mm cuvette. The percent stability is measured as the ratio of absorbance at λmax for the irradiated sample compared to the unirradiated sample.
The thin films are a good surrogate for testing the stability of a candidate in, for example, a sunscreen formulation as they use cosmetic emollients as solvent and are formed at cosmetically relevant concentrations.

λmax [1]	λcrit [1]	E (1%, 1 cm) [1]	ε [1]	Steepness [2]	Breakthrough (1% T at 0.1%) [2]	Photostability (% remains) [3]	Photostability [3]	SMILES
319 (broad) nm	356 nm	611	22532	–	–	31%	–	CCN(/C=C(\C(=O)c1c(F)c(F)c(F)c(F)c1F)c1ccccc1)CC [Compound 203]
363 nm	387 nm	358	12357	–	–	70%	–	O=C(/C(=C(/c1ccccc1)N1CCCC1)c1ccccc1)C(F)(F)F [Compound 204]
347 nm	374 nm	646	30252	–	–	85%	–	CCCCC(CC)COC(=O)c1ccc(N(/C=C(\C(=O)C(F)(F)F)c2ccccc2)CC)cc1 (stereo not drawn) [Compound 227]
374 nm	391 nm	1168	89042	–	–	95%	–	O=C(OCCCOC(=O)c1ccc2c(c1)CCN2/C=C(\C(=O)C(F)(F)F)c1ccccc1)c1ccc2c(c1)CCN2/C=C(\C(=O)C(F)(F)F)c1ccccc1 [Compound 228]
330 nm	365 nm	704	24440	31 nm	381 nm	–	87%	CCCCN(/C=C(/C(=O)C(F)(F)F)c1ccccc1)c1ccccc1 [Compound 234]
348 nm	380 nm	775	28737	39 nm	400 nm	–	83%	CCOC(=O)C(=O)/C(=C/N(c1ccccc1)c1ccccc1)c1ccccc1 [Compound 237]
361 nm	386 nm	893	29026	37 nm	420 nm	–	70%	O=C(/C(=C/N1CCc2ccccc21)c1ccccc1)c1ccccc1 [Compound 243]
357 nm	385 nm	451	15933	43 nm	405 nm	–	53%	CC1(C)CN(/C=C(/C(=O)c2ccccc2)c2ccccc2)c2ccccc21 [Compound 246]
371 nm	389 nm	1096	41977	34 nm	422 nm	–	76%	COC(=O)c1ccc2c(c1)CCN2/C=C(/C(=O)c1ccccc1)c1ccccc1 [Compound 247]
329 nm	368 nm	728	23523	38 nm	383 nm	–	78%	CCOC(=O)C(=O)/C(=C\N(CC)c1ccccc1)c1ccccc1 [Compound 248]
341 nm	373 nm	738	28714	37 nm	389 nm	–	60%	Cc1ccccc1C(=O)/C(=C/N(c1ccccc1)c1ccccc1)c1ccccc1 [Compound 250]
355 nm	375 nm	929	34122	26 nm	392 nm	–	78%	Cc1cc(C)c(C(=O)/C(=C/N2CCc3ccccc32)c2ccccc2)c(C)c1 [Compound 253]
341 nm	369 nm	661	27592	32 nm	383 nm	–	88^a %	Cc1cc(C)c(C(=O)/C(=C/N(c2ccccc2)c2ccccc2)c2ccccc2)c(C)c1 [Compound 254]
323 nm	351 nm	798	29450	34 nm	364 nm	–	83^a %	CCN(/C=C(/C(=O)c1c(C)cc(C)cc1C)c1ccccc1)c1ccccc1 [Compound 255]
372 nm	391 nm	–	48566 and 46566	28 nm	421 nm	–	85%	CCOC(=O)C(=O)/C(=C/N1CCc2cc(C(=O)OC)ccc21)c1ccccc1 [Compound 256]

More lines, now with the values behind:

SMILES	λmax [1]	λcrit [1]	E (1%, 1 cm) [1]	ε [1]	Steepness [2]	Breakthrough (1% T at 0.1%) [2]	Photostability (% remains) [3]	Photostability [3]
CCN(/C=C(\C(=O)C(F)(F)F)c1ccccc1)CC [Compound 144]	319 nm	350 nm	860	23306	23 nm	361 nm	97%	97%
COc1ccc2c(c1)CCN2/C=C(\C(=O)C(F)(F)F)c1ccccc1 [Compound 200]	381 nm	393 nm	1004	34855	–	–	91%	–
COC(=O)c1ccc2c(c1)CCN2/C=C(\C(=O)C(F)(F)F)c1ccccc1 [Compound 201]	373 nm	391 nm	1230	46134	18 nm	420 nm	97%	97%
O=C(/C(=C\N1CCCN(/C=C(\C(=O)C(F)(F)F)c2ccccc2)c2ccccc21)c1ccccc1)C(F)(F)F [Compound 224]	323 nm	366 nm	690	37546	–	–	97%	–
CCOC(=O)C(=O)/C(=C\N1CCc2ccccc21)c1ccccc1 [Compound 231]	363 nm	388 nm	989	31758	34 nm	418 nm	–	80%
CCCN(/C=C(/C(=O)C(F)(F)F)c1ccccc1)c1ccccc1 [Compound 233]	331 nm	365 nm	734	24467	36 nm	380 nm	–	87%
CN(C)/C=C(/C(=O)c1ccccc1)c1ccccc1 [Compound 240]	313 nm	361 nm	776	19475	40 nm	379 nm	–	10%
O=C(/C(=C/N(c1ccccc1)c1ccccc1)c1ccccc1)c1ccccc1 [Compound 244]	352 nm	383 nm	536	20114	43 nm	407 nm	–	58%
CCN(/C=C(/C(=O)c1ccccc1)c1ccccc1)c1ccccc1 [Compound 245]	333 nm	374 nm	621	20292	40 nm	384 nm and 394 nm	–	55%
Cc1ccccc1C(=O)/C(=C/N1CCc2ccccc21)c1ccccc1 [Compound 251]	355 nm	378 nm	991	33598	30 nm	399 nm	–	52%
CCN(/C=C(/C(=O)c1ccccc1C)c1ccccc1)c1ccccc1 [Compound 252]	323 nm	359 nm	771	26295	39 nm	373 nm and 372 nm	–	48%
